Results as given in paper PMC9820316, “Novel Arylpiperazine Derivatives of Salicylamide with α1-Adrenolytic Properties Showed Antiarrhythmic and Hypotensive Properties in Rats” (International Journal of Molecular Sciences, 2022).
One block for each compound: values may come before it.

How the values were obtained:
α1-adrenergic receptors = assay: α1-adrenoceptor radioligand binding assay ([3H]-prazosin, rat cortex); conditions: rat cortex tissue, mean ± SEM
Description: (§1) The α1- and α2-adrenoceptor radioligand binding assays were performed on the rat cerebral cortex using previously described methods. […] The brains were homogenized using the ULTRA-TURRAX homogenizer in 10 mL of an ice-cold 50 mM Tris-HCl buffer (pH 7.6). The homogenates were centrifuged at 20,000× g for 20 min (0–4 °C). Subsequently, the cell pellet was resuspended in the Tris–HCl buffer and centrifuged again. Radioligand binding assays were carried out in plates (MultiScreen/Millipore). The final incubation mixture, with a volume of 300 μL, consisted of 240 μL of the tissue suspension, 30 μL of the radioligand solution, and 30 μL of the buffer containing 7–8 concentrations of the studied compounds. In order to measure the unspecific binding, 10 μM phentolamine (for [^3H]-prazosin) or 10 μM clonidine (for [^3H]-clonidine) were utilized. The incubation was completed by rapid filtration through Whatman GF/C filters using a vacuum manifold (Millipore). The filters were then washed twice with the assay buffer and placed in scintillation vials with a liquid scintillation cocktail. Radioactivity was measured in a WALLAC 1409 DSA liquid scintillation counter (Perkin Elmer, USA). All the assays were performed in duplicates, and the inhibitory constants (Ki) were calculated.

normal ECG in rats = assay: Effect on a normal electrocardiogram in rats; type: in vivo, rat; conditions: 5 mg/kg iv; for HR—heart rate / PQ interval / QRS complex / QTc (Bazzett's formula): mean ± SD; for PQ interval / QRS complex / QTc (Bazzett's formula): in ms (unit assumed)
Description: The procedure was performed to exclude the negative effects of the tested compounds on the normal ECG, according to the method described earlier. […] Firstly, animals were anesthetized with thiopental (75 mg/kg ip). […] The influence on PQ, QTc interval, QRS complex, and heart rate was evaluated. The Bazzett’s formula: QTc = QT/√RR was used to calculate QTc. All the studied compounds were administered at a dose of 5 mg/kg.

[1] = system: adrenaline-induced arrhythmia model in rats; assay: Therapeutic antiarrhythmic activity in adrenaline-induced arrhythmia; conditions: 1 mg/kg iv immediately after adrenaline 20 µg/kg; number of animals with event
Description: The experiments were carried out according to the method described by Szekeres and Papp [71]. The heart rhythm disturbances, such as extrasystoles, conduction blocks, and bradycardia, were induced by iv injection of adrenaline (20 µg/kg) to anesthetized rats (thiopental, 75 mg/kg, ip). […] The Aspel ASCARD apparatus (standard II lead, with a tape of speed 50 mm/s and voltage calibration of 1 mV = 1 cm) was used for the ECG measurements. The ECG was recorded during the first 2 min and in the 5th, 10th, and 15th min after the adrenaline injection (Figure 3B). The lack or decreased amount of extrasystoles, atrioventricular blocks, and bradycardia in the ECG recordings compared to the control group was the criterion of antiarrhythmic activity [72].
Automated ECG waveform analysis was evaluated as described earlier [55], using Eleven Maze software version 0.1 from Eleven Products Sp. z o.o. […] The software, under expert supervision, recognized and classified the heart rhythm irregularities. It also calculated PQ, QRS, QTc, and rate parameters.

[2] = system: adrenaline-induced arrhythmia model in rats; assay: Prophylactic antiarrhythmic activity in adrenaline-induced arrhythmia; type: in vivo, rat; conditions: for Blocks / Bradycardia / Extrasystoles / Mortality: number of animals with event
Description: (§2) The animals were anesthetized with thiopental (75 mg/kg ip). Depending on the model, either adrenaline, aconitine, or calcium chloride was used as an arrhythmogen. Adrenaline and aconitine were administered iv at a dose of 20 µg/kg, whereas calcium chloride was administered at a dose of 140 mg/kg to induce heart rhythm disturbances. The tested compounds were injected iv 15 min before the arrhythmogen. Aspel ASCARD apparatus (standard II lead, with the tape speed 50 mm/s and voltage calibration 1 mV = 1 cm) was used for ECG measurements. […] The ED50 was calculated using the method of Litchfield and Wilcoxon.

[3] = system: pressor response to methoxamine in rats; assay: Influence on blood vasopressor response to methoxamine in rats; type: in vivo, rat; conditions: 5 mg/kg iv, methoxamine 150 μg/kg before and 5 min after compound
Description: The experiment was performed to establish the effect of the studied derivatives on the pressor response to methoxamine (150 µg/kg, iv), according to the methods described previously. Normotensive Wistar rats were anesthetized with thiopental (75 mg/kg ip). The right carotid artery was cannulated with a polyethylene tube filled with heparin solution using a Datamax apparatus (Columbus Instruments, Columbus, OH, USA). After a 15-min stabilization period, the pressor response to methoxamine before (control) and 5 min after the administration of the tested compounds was measured (Figure 4B). The tested compounds were administered at the lowest hypotensive dose.

[4] = system: calcium chloride-induced arrhythmia model in rats; assay: Prophylactic antiarrhythmic activity in calcium chloride-induced arrhythmia; type: in vivo, rat; conditions: 5 mg/kg iv 15 min before calcium chloride 140 mg/kg; number of animals with event
Description: as §2

[5] = system: aconitine-induced arrhythmia model in rats; assay: Prophylactic antiarrhythmic activity in aconitine-induced arrhythmia; type: in vivo, rat; conditions: 5 mg/kg iv 15 min before aconitine 20 μg/kg; number of animals with event
Description: as §2

α2-adrenergic receptors = assay: α2-adrenoceptor radioligand binding assay ([3H]-clonidine, rat cortex); conditions: rat cortex tissue, mean ± SEM, n.a. = did not bind at 10^−5 M
Description: as §1

[6] = 0 min (prior to administration)
[7] = 0.02 mg/kg iv 15 min before adrenaline 20 μg/kg
[8] = 0.05 mg/kg iv 15 min before adrenaline 20 μg/kg
[9] = 0.1 mg/kg iv 15 min before adrenaline 20 μg/kg

Adrenergic Receptors—pKi α1 (α1-adrenergic receptors): 8.05 ± 0.01
Structure (SMILES): Cc1ccc(N(CC2=NCCN2)c2cccc(O)c2)cc1 [Phentolamine, phentolamine, reference compound]

Structure (SMILES): COc1ccccc1N1CCN(CCCCOc2ccccc2C(N)=O)CC1.Cl [JJGW07, 2-{4-[4-(2-metoxyphenyl)piperazin-1-ylo]butoxy}benzamide hydrochloride]
effect on the heart rate during the ECG recording (normal ECG in rats): did not affect the heart rate
HR—heart rate (normal ECG in rats; [6]): 328.7 ± 9.3
PQ interval (normal ECG in rats; [6]): 40.7 ± 2.1
QRS complex (normal ECG in rats; [6]): 47.0 ± 6.3
QTc (Bazzett's formula) (normal ECG in rats; [6]): 196.5 ± 8.0
HR—heart rate (normal ECG in rats; 5 min): 341.2 ± 11.5
PQ interval (normal ECG in rats; 5 min): 40.0 ± 2.2
QRS complex (normal ECG in rats; 5 min): 49.7 ± 7.9
QTc (Bazzett's formula) (normal ECG in rats; 5 min): 190.8 ± 4.2
HR—heart rate (normal ECG in rats; 10 min): 333.2 ± 20.9
PQ interval (normal ECG in rats; 10 min): 40.7 ± 3.7
QRS complex (normal ECG in rats; 10 min): 48.7 ± 7.2
QTc (Bazzett's formula) (normal ECG in rats; 10 min): 196.3 ± 9.5
HR—heart rate (normal ECG in rats; 15 min): 336.3 ± 20.9
PQ interval (normal ECG in rats; 15 min): 40.7 ± 1.6
QRS complex (normal ECG in rats; 15 min): 48.7 ± 9.2
QTc (Bazzett's formula) (normal ECG in rats; 15 min): 192.4 ± 7.5
Blocks [1]: 2/5
Bradycardia [1]: 1/5
Mortality [1]: 0/5
Blocks [2, 7]: 6/6
Bradycardia [2, 7]: 6/6
Extrasystoles [2, 7]: 5/6
Mortality [2, 7]: 3/6
Blocks [2, 8]: 4/6
Bradycardia [2, 8]: 4/6
Extrasystoles [2, 8]: 5/6
Mortality [2, 8]: 0/6
Blocks [2, 9]: 3/6
Bradycardia [2, 9]: 3/6
Extrasystoles [2, 9]: 4/6
Mortality [2, 9]: 0/6
ED50 value lower than that of carvedilol ([2]; adrenaline-induced arrhythmia, prophylactic, carvedilol ref 62): 9 fold
ED50 ([2]; prophylactic, iv 15 min before adrenaline 20 μg/kg, confidence limits in brackets (Litchfield and Wilcoxon)): 0.04 (0.01–0.15) mg/kg
attenuation of the methoxamine pressor response [3]: 100%
Blocks [4]: 6/6
Bradycardia [4]: 6/6
Extrasystoles [4]: 6/6
Fibrillations [4]: 6/6
Mortality [4]: 6/6
Blocks [5]: 6/6
Bradycardia [5]: 6/6
Extrasystoles [5]: 6/6
Fibrillations [5]: 6/6
Mortality [5]: 6/6
Adrenergic Receptors—pKi α1 (α1-adrenergic receptors): 7.85 ± 0.01

Adrenergic Receptors—pKi α2 (α2-adrenergic receptors): 8.30 ± 0.01
Structure (SMILES): Clc1cccc(Cl)c1N=C1NCCN1 [Clonidine, clonidine, reference compound]
